From patent US8729059B2, “Paramyxovirus family inhibitors and methods of use thereof” (priority 2007, dated 2014)
pIC50: −log10 of the molar value.

How the values were obtained:
MV-Anc [1] = assay: compound specificity assay (BSA, higher virus inoculum); type: cell-based, measles virus
Description: Bovine serum albumin (BSA) was added to some samples at a final concentration of 10 mg/ml.

MV polymerase complex = MV polymerase complex (Measles virus, UniProt P12576); type: cell-based
MV [2] = assay: time of compound addition assay; type: cell-based, measles virus; details: 15 μM added 12 hours post-infection, harvest 20 hours post-infection
Description: Cells (3×10^5/well in a 12-well plate format) were infected with MV at an MOI=[…] and compounds compound 16677 (final concentration 15 μM) or AS-48 (final concentration 75 μM) added at the indicated time points. Control cells were infected in the presence of equal amounts of DMSO. Twenty hours post-infection, when virus-induced cytopathicity exceeded 90%, cell-associated viral particles were harvested and subjected to TCID50 titration.

Nipah virus polymerase = Nipah virus polymerase (Nipah virus, UniProt Q997F0); type: cell-based
MV-Anc [3] = assay: compound stability under physiological conditions; type: physicochemical, measles virus; details: 15 μM, 37° C., pre-incubation for 24 hours
Description: To assess compound stability under physiological conditions, inhibitor compound 16677 was dissolved in growth medium (15 μM final concentration) and incubated at 37° C. and physiological pH for different time intervals (24 hours longest). Control samples contained equal amounts of DMSO and were likewise incubated for 24 hours. Subsequent to pre-incubation, MV was added to the compound aliquots and the mixtures transferred to 4×10^5 target cells seeded in a 6-well plate format (resulting MOI=0.1 pfu/cell). Thirty-six hours post-infection, cell-associated viral particles were harvested and virus titers determined by TCID50 titration.

MV [4] = assay: virus entry assay (pH 3.0 wash); type: cell-based, measles virus; details: 10 μM, compared to DMSO-treated cells
Description: For entry experiments, viral particles (MOI=0.5) were absorbed to 4×10^5 target cells in a 6-well plate format at 4° C. in the presence of 10 μM compound 16677 or equal amounts of DMSO for one hour. Cells were then shifted to 37° C. for 30 minutes, followed by inactivation of adsorbed, extracellular virions by a 2-minute acid treatment (40 mM sodium citrate, 10 mM KCl, 135 mM NaCl, pH 3.0) at 25° C. as previously described (37,39,49). Subsequent incubation for 30 hours at 37° C. in the presence or absence of 10 μM compound 16677 as specified was followed by determination of cell-associated virus titers by TCID50 titration.

[5] = test system: human parainfluenzavirus type 2 (hPIV2); type: cell-based; details: read-out: IC50 against hPIV2
MV [6] = assay: dissociation assay (dialysis); type: cell-based, measles virus; details: 15 μM, dialysis against PBS
Description: Viral particles (4×10^4 pfu, equaling an MOI=[…]) were mixed with compound 16677 (final concentration 15 μM) dissolved in phosphate buffered saline (PBS). After 10-minute incubation at 37° C. to allow compound binding, samples were either subjected to dialysis against PBS (molecular weight cut off=75 kDa, dilution factor 100,000×, 4° C., 10 hours) or incubated for 10 hours at 4° C. without dialysis. Control samples were treated with DMSO-only and subjected to dialysis. All samples were then transferred to 4×10^5 target cells seeded in a 6-well plate, cell-associated viral particles harvested 36 hours post-infection and viral titers determined by TCID50 titration.

[7] = test system: canine distemper virus (CDV); type: cell-based; details: read-out: IC50 against CDV
recombinant MV-Edm = assay: virus yield reduction assay, MV-Edm; type: cell-based, measles virus; details: 36 hours post-infection
Vero cells = assay: Trypan blue exclusion assay; details: 30 hours
T7 polymerase = T7 polymerase (Escherichia phage T7, UniProt P00573); assay: in vitro protein transcription/translation; type: biochemical; details: 50 μM compound vs untreated
Description: Rabbit reticulocyte lysates were mixed with 0.5 μg plasmid DNA encoding MV F under the control of the T7 promoter (pT7-MV F), 20 μCi [^35S]-methionine, and compound 16677 (final concentration 50 μM) or equal volumes of DMSO. Samples were incubated at 30° C. for 90 min, mixed with urea buffer (200 mM Tris, pH 6.8; 8 M urea; 5% SDS; 0.1 mM EDTA; 0.03% bromphenolblue; 1.5% dithiothreitol), and fractionated on 12% polyacrylamide gels. Dried gels were exposed to Kodak XAR films.

[8] = test system: panel of primary MV isolates; assay: virus yield dose-response, primary MV isolates; type: cell-based, measles virus
Description: For assessment of clinical MV isolates, compound was added in 3-fold dilutions (37.5 μM highest). Thirty-six hours post-infection, cell-associated viral particles were harvested and titered as described above.

Sequence of MV polymerase complex (P03422 whole entry): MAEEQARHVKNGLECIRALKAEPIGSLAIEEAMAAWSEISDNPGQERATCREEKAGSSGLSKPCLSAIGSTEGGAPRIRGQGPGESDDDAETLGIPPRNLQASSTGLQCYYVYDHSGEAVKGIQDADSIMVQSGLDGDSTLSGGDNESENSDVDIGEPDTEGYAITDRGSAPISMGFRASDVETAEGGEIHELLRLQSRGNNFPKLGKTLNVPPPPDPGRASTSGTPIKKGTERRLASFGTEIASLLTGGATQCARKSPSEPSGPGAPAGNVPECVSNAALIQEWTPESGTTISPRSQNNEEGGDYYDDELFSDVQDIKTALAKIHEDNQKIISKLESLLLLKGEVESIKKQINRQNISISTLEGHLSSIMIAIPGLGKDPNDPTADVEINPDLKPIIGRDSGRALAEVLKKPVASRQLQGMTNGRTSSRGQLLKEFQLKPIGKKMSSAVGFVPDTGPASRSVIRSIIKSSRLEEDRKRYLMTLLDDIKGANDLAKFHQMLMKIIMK
Sequence of MV polymerase complex (P12576 whole entry): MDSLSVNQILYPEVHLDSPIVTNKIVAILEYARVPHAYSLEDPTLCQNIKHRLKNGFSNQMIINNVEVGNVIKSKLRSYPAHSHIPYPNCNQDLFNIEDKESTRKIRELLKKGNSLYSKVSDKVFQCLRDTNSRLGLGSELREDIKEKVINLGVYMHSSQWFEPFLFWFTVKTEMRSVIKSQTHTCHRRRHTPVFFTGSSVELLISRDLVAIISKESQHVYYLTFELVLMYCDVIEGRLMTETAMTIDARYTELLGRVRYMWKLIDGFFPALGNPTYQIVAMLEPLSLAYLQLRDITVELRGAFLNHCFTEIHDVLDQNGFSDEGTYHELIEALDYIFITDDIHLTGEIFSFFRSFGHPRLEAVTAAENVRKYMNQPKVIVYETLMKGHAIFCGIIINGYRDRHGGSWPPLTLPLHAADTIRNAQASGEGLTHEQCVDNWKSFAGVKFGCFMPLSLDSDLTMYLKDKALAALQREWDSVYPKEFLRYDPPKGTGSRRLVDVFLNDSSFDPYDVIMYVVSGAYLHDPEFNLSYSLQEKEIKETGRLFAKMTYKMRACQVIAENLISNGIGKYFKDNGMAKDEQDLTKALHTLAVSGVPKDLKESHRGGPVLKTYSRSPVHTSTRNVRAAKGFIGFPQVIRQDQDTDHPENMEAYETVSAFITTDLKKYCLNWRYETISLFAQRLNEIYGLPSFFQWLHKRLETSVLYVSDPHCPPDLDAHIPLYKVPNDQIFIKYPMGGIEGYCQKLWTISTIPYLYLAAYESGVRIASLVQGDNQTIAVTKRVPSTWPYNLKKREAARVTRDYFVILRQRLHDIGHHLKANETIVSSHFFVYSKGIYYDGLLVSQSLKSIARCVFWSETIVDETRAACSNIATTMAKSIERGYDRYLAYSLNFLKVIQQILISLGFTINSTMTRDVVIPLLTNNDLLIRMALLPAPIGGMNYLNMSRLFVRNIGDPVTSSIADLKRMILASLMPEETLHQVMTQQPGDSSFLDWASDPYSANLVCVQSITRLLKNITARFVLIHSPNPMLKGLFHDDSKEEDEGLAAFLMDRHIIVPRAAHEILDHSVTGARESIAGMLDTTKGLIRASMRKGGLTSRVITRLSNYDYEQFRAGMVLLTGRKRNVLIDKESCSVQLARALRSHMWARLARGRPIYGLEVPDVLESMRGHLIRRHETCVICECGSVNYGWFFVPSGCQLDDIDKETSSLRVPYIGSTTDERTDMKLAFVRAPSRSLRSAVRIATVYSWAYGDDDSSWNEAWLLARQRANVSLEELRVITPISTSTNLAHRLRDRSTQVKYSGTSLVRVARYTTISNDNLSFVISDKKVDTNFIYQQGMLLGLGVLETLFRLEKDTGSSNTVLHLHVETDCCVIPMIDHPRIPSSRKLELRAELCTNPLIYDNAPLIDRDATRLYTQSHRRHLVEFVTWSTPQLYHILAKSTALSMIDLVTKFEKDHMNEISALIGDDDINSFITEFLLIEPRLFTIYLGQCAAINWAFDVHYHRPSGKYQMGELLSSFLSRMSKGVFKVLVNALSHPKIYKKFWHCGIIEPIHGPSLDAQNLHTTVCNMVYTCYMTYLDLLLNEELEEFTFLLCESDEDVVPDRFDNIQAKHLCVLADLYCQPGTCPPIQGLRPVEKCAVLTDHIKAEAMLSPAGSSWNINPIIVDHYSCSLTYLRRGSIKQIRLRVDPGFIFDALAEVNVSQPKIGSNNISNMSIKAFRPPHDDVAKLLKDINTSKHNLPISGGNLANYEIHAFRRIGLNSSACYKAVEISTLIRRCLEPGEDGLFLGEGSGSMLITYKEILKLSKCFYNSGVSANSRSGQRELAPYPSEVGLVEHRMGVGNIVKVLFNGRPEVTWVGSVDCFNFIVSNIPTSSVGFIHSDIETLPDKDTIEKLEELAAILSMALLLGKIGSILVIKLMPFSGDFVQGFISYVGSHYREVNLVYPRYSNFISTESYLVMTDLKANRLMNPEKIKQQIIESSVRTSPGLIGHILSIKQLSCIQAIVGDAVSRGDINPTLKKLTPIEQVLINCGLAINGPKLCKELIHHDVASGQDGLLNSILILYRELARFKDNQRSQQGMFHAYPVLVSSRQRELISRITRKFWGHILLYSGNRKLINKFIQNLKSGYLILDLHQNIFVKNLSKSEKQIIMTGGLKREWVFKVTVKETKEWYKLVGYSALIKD
Sequence of T7 polymerase (P00573 whole entry): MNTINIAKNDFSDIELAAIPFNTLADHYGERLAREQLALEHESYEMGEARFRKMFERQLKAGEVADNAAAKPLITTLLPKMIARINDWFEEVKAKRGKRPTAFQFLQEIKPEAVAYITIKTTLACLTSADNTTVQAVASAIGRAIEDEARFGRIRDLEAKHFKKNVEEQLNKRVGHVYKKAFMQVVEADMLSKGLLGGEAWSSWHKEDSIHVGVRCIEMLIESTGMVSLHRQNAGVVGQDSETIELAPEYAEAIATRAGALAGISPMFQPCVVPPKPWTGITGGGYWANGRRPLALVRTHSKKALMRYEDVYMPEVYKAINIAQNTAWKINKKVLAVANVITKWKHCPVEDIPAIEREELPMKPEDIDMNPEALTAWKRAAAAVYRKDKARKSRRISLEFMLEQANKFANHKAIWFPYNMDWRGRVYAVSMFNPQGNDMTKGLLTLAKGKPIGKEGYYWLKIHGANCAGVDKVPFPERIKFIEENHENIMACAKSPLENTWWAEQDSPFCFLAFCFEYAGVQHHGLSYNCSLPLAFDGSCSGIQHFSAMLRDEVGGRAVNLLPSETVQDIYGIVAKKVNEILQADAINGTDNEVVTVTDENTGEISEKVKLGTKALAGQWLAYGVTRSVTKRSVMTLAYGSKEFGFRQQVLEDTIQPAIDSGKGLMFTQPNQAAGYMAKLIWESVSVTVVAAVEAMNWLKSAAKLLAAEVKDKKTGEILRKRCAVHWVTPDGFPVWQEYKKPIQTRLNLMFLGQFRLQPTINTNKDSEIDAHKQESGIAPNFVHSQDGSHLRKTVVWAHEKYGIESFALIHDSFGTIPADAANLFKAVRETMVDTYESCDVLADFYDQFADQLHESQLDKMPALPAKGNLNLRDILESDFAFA

## Cn1nc(C(F)(F)F)cc1C(=O)Nc1ccc(S(=O)(=O)N2CCCC2)cc1 [compound 16677, 1-methyl-3-(trifluoromethyl)-N-[4-(pyrrolidinylsulfonyl)-phenyl]-1H-pyrazole-5-carboxamide]
MV-Anc [1]
  change of IC50 with 10 mg/ml BSA or five-fold higher virus inoculum: no significant differences were observed
MV polymerase complex
  CAT expression in MV minireplicon assay: strong dose-dependent inhibition of CAT expression
  IC50 in minigenome assay relative to IC50 against MV isolates: about 25 times
MV [2]
  reduction in virus yields: approximately 99.9%
Nipah virus polymerase
  effect on Nipah virus minireplicon: no effect
MV-Anc [3]
  antiviral activity after pre-incubation in cell culture medium: no loss in antiviral activity
MV [4]
  effect of pH 3.0 wash on virus yields after absorption in presence of compound: only slightly affected
[5]
  pIC50: < 4.12
MV [6]
  inhibitory activity after dialysis prior to infection (reversibility): completely ablated by dialysis
[7]
  pIC50: 4.55
Recombinant MV-Edm
  pIC50: ~6.62
Vero cells; compound concentration 500 μM
  number of live cells, of solvent-treated controls: approximately 80%
cells
  CC50: > 150 µM
T7 polymerase
  F protein produced in cell-free transcription/translation: Equal amounts of F protein were detected
[8]
  inhibition of MV-Ibd (genotype B3, resistant to MV entry inhibitors): efficiently inhibited

## Cc1ccc2[nH]c(=O)c(CNS(=O)(=O)c3ccccc3)c(-c3ccccc3)c2c1 [compound 68290]
Recombinant MV-Edm
  pIC50: 5.11
Vero cells; trypan-blue exclusion
  concentration giving 50% reduction of the number of live cells: approximately 75 μM
cells
  CC50: > 150 µM

## Cc1ccc2nsnc2c1S(=O)(=O)Nc1ccc(Cl)cc1 [compound 99920]
Recombinant MV-Edm
  pIC50: 5.89
cells
  CC50: 100 µM

## O=C(NC(=O)N(c1ccc(Cl)cc1)S(=O)(=O)c1ccccc1)Nc1ccccc1Cl [compound 15960]
Recombinant MV-Edm
  pIC50: 5.47
cells
  CC50: 120 µM
